Measured values published in US8361968B2 (Takeda Pharmaceutical Company Limited, priority 2002, dated 2013).
Numbered stars: 1 amine (or outer) side, 2 acyl side, 3 side chain; on linkers, the order of the positions; unused ones are H or OH. Square brackets hold non-standard residues; d marks the D form. Peptide text beside a SMILES is read from it. * marks the point of attachment. X4 = CC(C)C[C@H](NCCN*)C(=O)N[C@@H](CCCNC(=N)N)C(=O)N[C@@H](Cc1ccccc1)C(N)=O; X5 = NC(=O)C[C@@H](CN([C@@H](Cc1c[nH]c2ccccc12)C(=O)[*:2])[*:1])N[*:3]; X10 = NC(=O)C[C@@H](C(=O)[*:2])N(C[C@@H](N)Cc1ccc(O)cc1)[*:1]; Butyryl(4-indol-3-yl) = O=C(CCCc1c[nH]c2ccccc12)*; X11 = O=C(CNC(=S)[C@H](Cc1ccccc1)N[*:1])[*:2]; Arg(Me) = CNC(=N)NCCC[C@H](N)C(=O)O; Tryptamide = c1ccc2c(CCN*)c[nH]c2c1; d3Pal = N[C@H](Cc1cccnc1)C(=O)O; Cha = N[C@@H](CC1CCCCC1)C(=O)O; CO = O=C([*:1])[*:2]; azaGly = NNC(=O)O

molecular target: hOT7T175 (Homo sapiens, UniProt Q969F8, L364H); assay: Intracellular Ca ion level-increasing activity using FLIPR in hOT7T175/CHO; format: cell-based; parameters: expressed in transfected cells; host or cells: CHO/dhfr- cells, obtained from ATCC; conditions: relative, Metastin (1-54) = 1
Sequence (Q969F8 whole entry L364H): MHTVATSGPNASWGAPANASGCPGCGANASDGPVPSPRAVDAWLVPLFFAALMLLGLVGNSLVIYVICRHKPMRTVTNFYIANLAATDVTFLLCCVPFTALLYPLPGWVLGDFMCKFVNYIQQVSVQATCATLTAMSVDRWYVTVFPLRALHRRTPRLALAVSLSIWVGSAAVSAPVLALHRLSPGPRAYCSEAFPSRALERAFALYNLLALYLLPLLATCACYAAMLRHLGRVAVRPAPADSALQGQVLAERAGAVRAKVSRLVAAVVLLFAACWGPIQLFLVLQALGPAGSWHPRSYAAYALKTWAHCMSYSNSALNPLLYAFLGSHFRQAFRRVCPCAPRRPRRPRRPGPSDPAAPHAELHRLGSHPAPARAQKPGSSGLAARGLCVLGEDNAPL

Compound	Specific Activity (intracellular Ca ion level-increasing activity)
CNC(=N)NCCC[C@H](NC(=O)[C@H](CC(C)C)NC(=O)NNC(=O)[C@H](Cc1ccccc1)NC(=O)[C@H](CO)NC(=O)[C@H](CC(N)=O)NC(=O)[C@H](Cc1ccccc1)NC(=O)[C@H](N)Cc1cccnc1)C(=O)N[C@@H](Cc1ccccc1)C(N)=O [Compound No. 256, D-Pya(3)-Phe-Asn-Ser-Phe-AzaGly-Leu-Arg(Me)-Phe-NH2] (H-[d3Pal]FNSF[azaGly]L[Arg(Me)]F-NH2)	1
CNC(=N)NCCC[C@H](NC(=O)[C@H](CC(C)C)NC(=O)NNC(=O)[C@H](Cc1ccccc1)NC(=O)[C@H](CO)NC(=O)[C@H](CC(N)=O)NC(=O)[C@H](Cc1ccccc1)NC(=O)[C@@H](CC(N)=O)NC(=O)[C@H](N)Cc1ccc(O)cc1)C(=O)N[C@@H](Cc1ccccc1)C(N)=O [Compound No. 257, D-Tyr-D-Asn-Phe-Asn-Ser-Phe-AzaGly-Leu-Arg(Me)-Phe-NH2] (H-[dY][dN]FNSF[azaGly]L[Arg(Me)]F-NH2)	3
CNC(=N)NCCC[C@H](NC(=O)[C@H](CC(C)C)NC(=O)NNC(=O)[C@H](Cc1ccccc1)NC(=O)[C@H](CO)NC(=O)[C@H](CC(N)=O)NC(=O)[C@H](Cc1c[nH]c2ccccc12)NC(=O)[C@H](CC(N)=O)NC(=O)[C@H](N)Cc1cccnc1)C(=O)N[C@@H](Cc1ccccc1)C(N)=O [Compound No. 258, D-Pya(3)-Asn-Trp-Asn-Ser-Phe-AzaGly-Leu-Arg(Me)-Phe-NH2] (H-[d3Pal]NWNSF[azaGly]L[Arg(Me)]F-NH2)	2
CNC(=N)NCCC[C@H](NC(=O)[C@H](CC(C)C)NC(=O)NNC(=O)[C@H](Cc1ccccc1)NC(=O)[C@H](CO)NC(=O)[C@H](CC(N)=O)NC(=O)[C@H](Cc1c[nH]c2ccccc12)NC(=O)[C@H](CC(N)=O)NC(=O)[C@@H](C)N)C(=O)N[C@@H](Cc1ccccc1)C(N)=O [Compound No. 259, D-Ala-Asn-Trp-Asn-Ser-Phe-AzaGly-Leu-Arg(Me)-Phe-NH2] (H-[dA]NWNSF[azaGly]L[Arg(Me)]F-NH2)	1
CC(C)C[C@H](NCCNC(=O)[C@H](Cc1ccccc1)NC(=O)[C@H](CO)NC(=O)[C@H](CC(N)=O)NC(=O)[C@H](Cc1c[nH]c2ccccc12)NC(=O)[C@H](CC(N)=O)NC(=O)[C@@H](N)Cc1ccc(O)cc1)C(=O)N[C@@H](CCCNC(=N)N)C(=O)N[C@@H](Cc1ccccc1)C(N)=O [Compound No. 261, Tyr-Asn-Trp-Asn-Ser-Phe-GlyΨ(CH2NH)Leu-Arg-Phe-NH2] (H-YNWNSF-X4; N-terminus assumed)	1
CNC(=N)NCCC[C@H](NC(=O)[C@H](CC(C)C)NC(=O)NNC(=O)[C@H](Cc1ccccc1)NC(=O)[C@H](CO)NC(=O)[C@H](CC(N)=O)NC(=O)CCCc1c[nH]c2ccccc12)C(=O)N[C@@H](Cc1ccccc1)C(N)=O [Compound No. 267, 4-(3-Indolyl)butyryl-Asn-Ser-Phe-AzaGly-Leu-Arg(Me)-Phe-NH2] ({Butyryl(4-indol-3-yl)}-NSF[azaGly]L[Arg(Me)]F-NH2)	2
CNC(=N)NCCC[C@H](NC(=O)[C@H](CC(C)C)NC(=O)NNC(=O)[C@H](Cc1ccccc1)NC(=O)[C@H](CO)NC(=O)[C@H](CC(N)=O)NC(=O)NCCc1c[nH]c2ccccc12)C(=O)N[C@@H](Cc1ccccc1)C(N)=O [Compound No. 279, 2-(indol-3-yl)ethylcarbamoyl-Asn-Ser-Phe-AzaGly-Leu-Arg(Me)-Phe-NH2] ({Tryptamide-CO}-NSF[azaGly]L[Arg(Me)]F-NH2)	5
CNC(=N)NCCC[C@H](NC(=O)[C@H](CC(C)C)NC(=O)NNC(=O)[C@H](Cc1ccccc1)NC(=O)[C@H](CO)NC(=O)[C@H](CC(N)=O)NC(=O)[C@@H](NC(=O)[C@@H](CC(N)=O)NC(=O)[C@H](N)Cc1ccc(O)cc1)[C@@H](C)O)C(=O)N[C@@H](Cc1ccccc1)C(N)=O [Compound No. 284, D-Tyr-D-Asn-Thr-Asn-Ser-Phe-AzaGly-Leu-Arg(Me)-Phe-NH2] (H-[dY][dN]TNSF[azaGly]L[Arg(Me)]F-NH2)	1
CNC(=N)NCCC[C@H](NC(=O)[C@H](CC(C)C)NC(=O)NNC(=O)[C@H](Cc1ccccc1)NC(=O)[C@H](CO)NC(=O)[C@H](CC(N)=O)NC(=O)[C@H](Cc1c[nH]c2ccccc12)NC(=O)[C@@H](CO)NC(=O)[C@H](N)Cc1ccc(O)cc1)C(=O)N[C@@H](Cc1ccccc1)C(N)=O [Compound No. 287, D-Tyr-D-Ser-Trp-Asn-Ser-Phe-AzaGly-Leu-Arg(Me)-Phe-NH2] (H-[dY][dS]WNSF[azaGly]L[Arg(Me)]F-NH2)	2
CNC(=N)NCCC[C@H](NC(=O)[C@H](CC(C)C)NC(=O)NNC(=O)[C@H](Cc1ccccc1)NC(=O)[C@H](CO)NC(=O)[C@H](CC(N)=O)NC(=O)[C@H](Cc1c[nH]c2ccccc12)NC(=O)[C@@H](Cc1c[nH]cn1)NC(=O)[C@H](N)Cc1ccc(O)cc1)C(=O)N[C@@H](Cc1ccccc1)C(N)=O [Compound No. 288, D-Tyr-D-His-Trp-Asn-Ser-Phe-AzaGly-Leu-Arg(Me)-Phe-NH2] (H-[dY][dH]WNSF[azaGly]L[Arg(Me)]F-NH2)	1
CNC(=N)NCCC[C@H](NC(=O)[C@H](CC(C)C)NC(=O)NNC(=O)[C@H](Cc1ccccc1)NC(=O)[C@H](CO)NC(=O)[C@H](CC(N)=O)NC(=O)[C@H](Cc1c[nH]c2ccccc12)NC(=O)[C@H](N)Cc1cccnc1)C(=O)N[C@@H](Cc1ccccc1)C(N)=O [Compound No. 289, D-Pya(3)-Trp-Asn-Ser-Phe-AzaGly-Leu-Arg(Me)-Phe-NH2] (H-[d3Pal]WNSF[azaGly]L[Arg(Me)]F-NH2)	1
CNC(=N)NCCC[C@H](NC(=O)[C@H](CC(C)C)NC(=O)NNC(=O)[C@H](Cc1ccccc1)NC(=O)[C@H](CO)NC(=O)[C@H](CC(N)=O)NC(=O)[C@H](CC1CCCCC1)NC(=O)[C@@H](CC(N)=O)NC(=O)[C@H](N)Cc1cccnc1)C(=O)N[C@@H](Cc1ccccc1)C(N)=O [Compound No. 290, D-Pya(3)-D-Asn-Cha-Asn-Ser-Phe-AzaGly-Leu-Arg(Me)-Phe-NH2] (H-[d3Pal][dN][Cha]NSF[azaGly]L[Arg(Me)]F-NH2)	1
CNC(=N)NCCC[C@H](NC(=O)[C@H](CC(C)C)NC(=O)NNC(=O)[C@H](Cc1ccccc1)NC(=O)[C@H](CO)NC(=O)[C@H](CC(N)=O)NC(=O)[C@H](CC1CCCCC1)NC(=O)[C@@H](Cc1ccc(O)cc1)NC(=O)[C@H](N)Cc1cccnc1)C(=O)N[C@@H](Cc1ccccc1)C(N)=O [Compound No. 291, D-Pya(3)-D-Tyr-Cha-Asn-Ser-Phe-AzaGly-Leu-Arg(Me)-Phe-NH2] (H-[d3Pal][dY][Cha]NSF[azaGly]L[Arg(Me)]F-NH2; N-terminus assumed)	2
CC(C)C[C@H](NC(=O)CNC(=O)[C@H](Cc1ccccc1)NC(=O)[C@H](CO)NC(=O)[C@H](CC(N)=O)NC(=O)[C@H](Cc1c[nH]c2ccccc12)NC(=O)[C@H](CC(N)=O)NC[C@@H](N)Cc1ccc(O)cc1)C(=O)N[C@@H](CCCNC(=N)N)C(=O)N[C@@H](Cc1ccccc1)C(N)=O [Compound No. 294] (H-[X10]WNSFGLRF-NH2)	10
CC(C)C[C@H](NC(=O)CNC(=O)[C@H](Cc1ccccc1)NC(=O)[C@H](CO)NC(=O)[C@H](CC(N)=O)NC(=O)[C@H](Cc1c[nH]c2ccccc12)NC[C@H](CC(N)=O)NC(=O)[C@@H](N)Cc1ccc(O)cc1)C(=O)N[C@@H](CCCNC(=N)N)C(=O)N[C@@H](Cc1ccccc1)C(N)=O [Compound No. 295] (H-[X5](Tyr)NSFGLRF-NH2)	1
CNC(=N)NCCC[C@H](NC(=O)[C@H](CC(C)C)NC(=O)CNC(=S)[C@H](Cc1ccccc1)NC(=O)[C@H](CO)NC(=O)[C@H](CC(N)=O)NC(=O)[C@H](Cc1c[nH]c2ccccc12)NC(=O)[C@H](CC(N)=O)NC(=O)[C@H](N)Cc1ccc(O)cc1)C(=O)N[C@@H](Cc1ccccc1)C(N)=O [Compound No. 296, D-Tyr-Asn-Trp-Asn-Ser-PheΨ(CSNH)Gly-Leu-Arg(Me)-Phe-NH2] (H-[dY]NWNS[X11]L[Arg(Me)]F-NH2)	3
CNC(=N)NCCC[C@H](NC(=O)[C@H](CC(C)C)NC(=O)NNC(=O)[C@H](Cc1ccccc1)NC(=O)[C@@H](NC(=O)[C@H](CC(N)=O)NC(=O)[C@H](Cc1c[nH]c2ccccc12)NC(=O)[C@H](CC(N)=O)NC(=O)[C@H](N)Cc1ccc(O)cc1)[C@@H](C)O)C(=O)N[C@@H](Cc1ccccc1)C(N)=O [Compound No. 297, D-Tyr-Asn-Trp-Asn-Thr-Phe-AzaGly-Leu-Arg(Me)-Phe-NH2] (H-[dY]NWNTF[azaGly]L[Arg(Me)]F-NH2; N-terminus assumed)	1
CNC(=N)NCCC[C@H](NC(=O)[C@H](CC(C)C)NC(=O)NNC(=O)[C@H](Cc1ccccc1)NC(=O)[C@@H](NC(=O)[C@H](CC(N)=O)NC(=O)[C@H](Cc1c[nH]c2ccccc12)NC(=O)[C@@H](CC(N)=O)NC(=O)[C@H](N)Cc1ccc(O)cc1)[C@@H](C)O)C(=O)N[C@@H](Cc1ccccc1)C(N)=O [Compound No. 298, D-Tyr-D-Asn-Trp-Asn-Thr-Phe-AzaGly-Leu-Arg(Me)-Phe-NH2] (H-[dY][dN]WNTF[azaGly]L[Arg(Me)]F-NH2)	5
CNC(=N)NCCC[C@H](NC(=O)[C@H](CC(C)C)NC(=O)NNC(=O)[C@H](Cc1ccccc1)NC(=O)[C@H](CO)NC(=O)[C@H](CC(N)=O)NC(=O)[C@H](Cc1c[nH]c2ccccc12)NC(=O)[C@H](CC(N)=O)NC[C@@H](N)Cc1ccc(O)cc1)C(=O)N[C@@H](Cc1ccccc1)C(N)=O [Compound No. 299, TyrΨ(CH2NH)Asn-Trp-Asn-Ser-Phe-AzaGly-Leu-Arg(Me)-Phe-NH2] (H-[X10]WNSF[azaGly]L[Arg(Me)]F-NH2)	5
